Data from ChEMBL document CHEMBL1131709, “Acyl-CoA: cholesterol acyltransferase inhibitory activity of ginseng sapogenins, produced from the ginseng saponins” (Bioorg Med Chem Lett, 1999).

The molecules below were run against T1, Sterol O-acyltransferase 1 (Rattus norvegicus, UniProt O70536) (assay: In vitro inhibitory activity of compound was measured on rat liver Acyl coenzyme A:cholesterol acyltransferase).
T1 sequence (O70536 whole entry): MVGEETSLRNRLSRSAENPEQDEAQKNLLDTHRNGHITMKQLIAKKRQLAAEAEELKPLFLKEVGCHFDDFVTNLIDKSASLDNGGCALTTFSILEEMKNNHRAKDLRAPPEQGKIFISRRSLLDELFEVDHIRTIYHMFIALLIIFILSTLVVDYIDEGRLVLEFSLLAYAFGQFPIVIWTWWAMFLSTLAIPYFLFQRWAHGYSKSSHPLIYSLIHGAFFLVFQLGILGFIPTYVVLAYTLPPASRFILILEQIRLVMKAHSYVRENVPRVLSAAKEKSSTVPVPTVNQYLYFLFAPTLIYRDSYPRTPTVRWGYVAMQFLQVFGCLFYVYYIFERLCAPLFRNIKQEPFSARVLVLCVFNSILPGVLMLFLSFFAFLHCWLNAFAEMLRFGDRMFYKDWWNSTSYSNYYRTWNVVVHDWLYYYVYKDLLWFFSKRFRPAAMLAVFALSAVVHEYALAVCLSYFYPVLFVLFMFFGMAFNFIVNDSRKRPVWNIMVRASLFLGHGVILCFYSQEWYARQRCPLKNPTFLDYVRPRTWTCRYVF

SMILES	IC50
CC(C)=CCC[C@@](C)(O)[C@H]1CC[C@]2(C)[C@@H]1[C@H](O)C[C@@H]1[C@@]3(C)CC[C@H](O)C(C)(C)[C@@H]3CC[C@]12C	10 µM
CC1(C)CCC[C@](C)(C2CC[C@]3(C)C2[C@H](O)CC2[C@@]4(C)CC[C@H](O)C(C)(C)C4CC[C@]23C)O1 (stereo partly drawn)	55 µM
CC1(C)CCC[C@](C)(C2CC[C@]3(C)C2[C@H](O)CC2[C@@]4(C)CC[C@H](O)C(C)(C)C4[C@@H](O)C[C@]23C)O1 (stereo partly drawn)	12 µM
CC(C)=CCC[C@](C)(O)C1CC[C@]2(C)C1[C@H](O)CC1[C@@]3(C)CC[C@H](O)C(C)(C)C3[C@@H](O)C[C@]12C (stereo partly drawn)	24 µM
CC1(C)CCC[C@@](C)(C2CC[C@]3(C)C2[C@H](O)CC2[C@@]4(C)CC[C@H](O)C(C)(C)C4[C@@H](O)C[C@]23C)O1 (stereo partly drawn)	28 µM
CC1(C)CCC[C@@](C)(C2CC[C@]3(C)C2[C@H](O)CC2[C@@]4(C)CC[C@H](O)C(C)(C)C4CC[C@]23C)O1 (stereo partly drawn)	25 µM
CC(C)=CCC[C@@](C)(O)[C@H]1CC[C@]2(C)C1[C@H](O)C[C@@H]1[C@@]3(C)CC[C@H](O)C(C)(C)[C@@H]3[C@@H](O)C[C@]12C (stereo partly drawn)	6 µM
CC(C)=CCC[C@](C)(O)[C@H]1CC[C@]2(C)[C@@H]1[C@H](O)C[C@@H]1[C@@]3(C)CC[C@H](O)C(C)(C)[C@@H]3CC[C@]12C	30 µM
